Earlier results, collected in publication PMC11249626, “Fluorophore-Labeled Pyrrolones Targeting the Intracellular Allosteric Binding Site of the Chemokine Receptor CCR1” (ACS Pharmacology & Translational Science, 2024).
Read-outs that look alike come from different tables or passages of the source.

Key:
CCR2 [1] = target: T1, CCR2 (Homo sapiens, UniProt P41597); design: method as in PMID 35838163; conditions: membrane-based setup; cited from earlier work
T1 construct: host or cells: HEK293T, transient
T1 sequence (P41597 1-360 isoform P41597-2): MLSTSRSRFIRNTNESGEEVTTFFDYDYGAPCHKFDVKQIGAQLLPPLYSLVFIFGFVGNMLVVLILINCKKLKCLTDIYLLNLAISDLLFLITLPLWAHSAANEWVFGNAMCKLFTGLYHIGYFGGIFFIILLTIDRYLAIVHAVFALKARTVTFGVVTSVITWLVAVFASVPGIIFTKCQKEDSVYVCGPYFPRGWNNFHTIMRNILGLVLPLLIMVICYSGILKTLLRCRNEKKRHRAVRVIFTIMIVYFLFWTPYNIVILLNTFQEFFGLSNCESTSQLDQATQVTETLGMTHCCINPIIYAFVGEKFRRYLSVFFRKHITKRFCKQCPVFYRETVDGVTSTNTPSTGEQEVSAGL

CCR2 [2] = target: T1, CCR2; design: method as in PMID 35838163; conditions: cellular setup; cited from earlier work
CCR1 = target: T2, CCR1 (Homo sapiens, UniProt P32246); design: Promega pNLF1-C (Nluc) #CCR010TN00; host or cells: HEK293T, transient (PEI); method as in PMID 35838163; conditions: cited from earlier work
T2 sequence (P32246 1-355): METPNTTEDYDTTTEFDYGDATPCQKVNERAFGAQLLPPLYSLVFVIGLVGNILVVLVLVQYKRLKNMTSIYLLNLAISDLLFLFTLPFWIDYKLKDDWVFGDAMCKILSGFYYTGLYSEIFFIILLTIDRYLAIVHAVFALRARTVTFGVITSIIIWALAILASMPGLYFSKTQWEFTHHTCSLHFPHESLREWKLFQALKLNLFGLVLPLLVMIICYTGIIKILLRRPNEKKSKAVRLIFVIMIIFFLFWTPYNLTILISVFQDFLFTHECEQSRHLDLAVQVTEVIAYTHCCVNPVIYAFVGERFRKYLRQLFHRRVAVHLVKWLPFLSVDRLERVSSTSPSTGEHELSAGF

## CN(C)c1ccc2c(-c3cc(C(=O)NCCOCCOCCn4cc(CNC(=O)c5ccc(Oc6ncc(Cl)cc6NS(=O)(=O)c6ccc(Cl)c(C(F)(F)F)c6)cc5)nn4)ccc3C(=O)[O-])c3ccc(=[N+](C)C)cc-3oc2c1 [compound 7]
CCR2 [1]
  Kd: 0.266 µM
CCR2 [2]
  Kd: 0.114 µM
CCR1
  KD(CCR1) / binding to CCR1: no relevant binding
